Data reported in patent US20150352108A1, “AMINO-PYRIMIDINE COMPOUNDS AS INHIBITORS OF TBK1 AND/OR IKK EPSILON” (Alzheimer's Institute of America, priority 2009, published 2015).
pIC50: −log10 of the molar value.

Legend:
[1] = target: T1, TBK1 (Homo sapiens, UniProt Q9UHD2); experiment: In-vitro TBK1 kinase assay ([γ33]ATP filter-plate); type: biochemical; details: text bins; read-out: IC50 for inhibition of the kinase activity of TBK1
T1 construct: His-tag; made in house; host or cells: Sf9 insect cells
T1 sequence (Q9UHD2 1-729): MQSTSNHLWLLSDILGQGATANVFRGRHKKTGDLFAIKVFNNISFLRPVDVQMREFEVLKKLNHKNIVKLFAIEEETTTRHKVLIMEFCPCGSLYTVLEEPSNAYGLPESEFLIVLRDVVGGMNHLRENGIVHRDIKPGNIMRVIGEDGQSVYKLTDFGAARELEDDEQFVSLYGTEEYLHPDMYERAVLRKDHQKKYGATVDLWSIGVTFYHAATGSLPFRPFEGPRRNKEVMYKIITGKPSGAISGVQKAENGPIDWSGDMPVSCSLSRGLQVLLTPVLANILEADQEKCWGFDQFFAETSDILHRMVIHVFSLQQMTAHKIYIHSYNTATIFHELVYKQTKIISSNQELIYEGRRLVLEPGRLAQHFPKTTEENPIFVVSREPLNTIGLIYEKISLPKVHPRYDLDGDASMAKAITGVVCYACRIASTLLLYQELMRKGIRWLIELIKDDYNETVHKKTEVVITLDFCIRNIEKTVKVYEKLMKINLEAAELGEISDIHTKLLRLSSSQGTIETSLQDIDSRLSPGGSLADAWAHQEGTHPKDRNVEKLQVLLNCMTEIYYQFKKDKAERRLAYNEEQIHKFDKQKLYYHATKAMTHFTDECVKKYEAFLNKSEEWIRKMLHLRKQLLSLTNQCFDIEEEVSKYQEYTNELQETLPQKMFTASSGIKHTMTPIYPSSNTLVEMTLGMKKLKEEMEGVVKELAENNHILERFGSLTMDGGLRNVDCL
Procedure: IKKε enzyme was produced as a His-tag fusion in Sf9 cells and used at a final concentration of […]. TBK1 enzyme was produced as a His-tag fusion in Sf9 cells and used at a final concentration of 0.1 μg/ml. Kinase reactions were carried out in reaction buffer using myelin basic protein (Millipore, Ballerica, Mass.) or casein (Sigma, St. Louis, Mo.) as substrate at an ATP concentration equal to twice the Km,ATP value for each enzyme, corresponding to 32 μM ATP for IKKε and 60 μM ATP for TBK1, in the presence of 0.3 μCi [γ^33]ATP (PerkinElmer, Waltham, Mass.). Final enzyme concentrations were 0.1 or 0.015 μg/ml (IKKε) and 0.1 or 0.02 μg/ml (TBK1), representing “normal” and “sensitized” assay conditions respectively. Test compounds (or DMSO solvent as a control) were added prior to initiation of the reactions. Reactions were terminated after 30-45 minutes by adding 3% phosphoric acid. Terminated reactions were transferred to P-81 cellulose phosphate filterplates (Whatman, Inc., Piscataway, N.J.) and washed with 1% phosphoric acid on a vacuum apparatus. After air drying, scintillant (PerkinElmer, Waltham, Mass.) was added and the plates were read on a PerkinElmer TopCount NXT instrument. Counts were normalized to DMSO controls after background subtraction.

[2] = target: T2, IKKε (Homo sapiens, UniProt Q14164); experiment: In-vitro IKKε kinase assay ([γ33]ATP filter-plate); type: biochemical; details: text bins; read-out: IC50 for inhibition of the kinase activity of IKKε
T2 construct: His-tag; made in house; host or cells: Sf9 insect cells
T2 sequence (Q14164 1-716): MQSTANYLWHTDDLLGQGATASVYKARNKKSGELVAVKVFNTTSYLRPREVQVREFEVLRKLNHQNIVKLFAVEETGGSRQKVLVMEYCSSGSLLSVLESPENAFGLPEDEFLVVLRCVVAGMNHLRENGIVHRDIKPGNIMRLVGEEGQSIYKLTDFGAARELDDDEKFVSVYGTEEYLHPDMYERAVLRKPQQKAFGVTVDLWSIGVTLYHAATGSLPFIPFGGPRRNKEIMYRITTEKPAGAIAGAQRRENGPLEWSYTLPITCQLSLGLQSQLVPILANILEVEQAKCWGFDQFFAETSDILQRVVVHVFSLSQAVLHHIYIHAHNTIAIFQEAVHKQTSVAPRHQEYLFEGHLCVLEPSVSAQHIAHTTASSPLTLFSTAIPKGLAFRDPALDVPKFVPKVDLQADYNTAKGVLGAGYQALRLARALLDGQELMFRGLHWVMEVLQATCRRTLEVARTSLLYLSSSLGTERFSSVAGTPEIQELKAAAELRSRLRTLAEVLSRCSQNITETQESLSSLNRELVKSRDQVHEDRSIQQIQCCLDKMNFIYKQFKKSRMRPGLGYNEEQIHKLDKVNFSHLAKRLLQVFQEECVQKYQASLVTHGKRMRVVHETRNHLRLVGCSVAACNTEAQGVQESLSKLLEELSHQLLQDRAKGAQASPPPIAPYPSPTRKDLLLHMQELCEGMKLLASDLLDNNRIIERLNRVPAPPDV
Outline: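 Phosphorylation of casein or myelin basic protein was counted by P-81 filter capture after 30-45 min reactions stopped with phosphoric acid, with counts normalized to DMSO after background subtraction. ATP was twice Km: 60 μM for TBK1 and 32 μM for IKKε, plus [γ33]ATP. Sf9-expressed His-tag enzymes were used at normal/sensitized levels of 0.1/0.02 μg/ml (TBK1) and 0.1/0.015 μg/ml (IKKε).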

Row | Structure (SMILES) | pIC50 [1] | pIC50 [2]
1 | C[C@H](O)C(=O)N1CCC(COc2ccc(-c3ccnc(Nc4ccc(N5CCOCC5)cc4)n3)cc2C#N)CC1 [Example 152, 2-({1-[(2S)-2-hydroxypropanoyl]piperidin-4-yl}methoxy)-5-(2-{[4-(morpholin-4-yl)phenyl]amino}pyrimidin-4-yl)benzonitrile] | 7.00 to 8.00 | 7.30 to 8.30
2 | COc1cc(NC(=O)NCCO)cc(Nc2nccc(-c3ccc(OC)c(C#N)c3)n2)c1 [compound 295, 1-(3-{[4-(3-Cyano-4-methoxyphenyl)pyrimidin-2-yl]amino}-5-methoxyphenyl)-3-(2-hydroxyethyl)urea] | 7.00 to 8.00 | 7.30 to 8.30
3 | Cc1nnsc1C(=O)Nc1ccc(-c2ccnc(Nc3ccc(N4CCOCC4)cc3)n2)cc1C#N [Example 129, N-[2-cyano-4-(2-{[4-(morpholin-4-yl)phenyl]amino}pyrimidin-4-yl)phenyl]-4-methyl-1,2,3-thiadiazol-5-carboxamide] | > 8.00 | > 8.30
4 | COc1ccc(Nc2nccc(-c3ccc(O)c(C#N)c3)n2)cc1OC [Example 118] | > 8.00 | > 8.30
5 | N#Cc1cc(-c2ccnc(Nc3ccc(N4CCOCC4)cc3)n2)ccc1OC1CNC1 [Example 143, 2-(azetidin-3-yloxy)-5-(2-{[4-(morpholin-4-yl)phenyl]amino}pyrimidin-4-yl)benzonitrile] | > 8.00 | 7.30 to 8.30
6 | CN(C)c1cccc(Nc2nccc(-c3ccc(OC4CCOCC4)c(C#N)c3)n2)c1 [compound 539, 5-(2-{[3-(Dimethylamino)phenyl]amino}pyrimidin-4-yl)-2-(tetrahydro-2H-pyran-4-yloxy)benzonitrile] | > 8.00 | > 8.30
7 | COc1cc(Nc2nccc(-c3ccc(OC(C)C)c(C#N)c3)n2)cc(OC)c1 [Example 272, 5-{2-[(3,5-Dimethoxyphenyl)amino]pyrimidin-4-yl}-2-(propan-2-yloxy)benzonitrile] | 7.00 to 8.00 | 7.30 to 8.30
8 | N#Cc1cc(-c2nc(Nc3ccc(N4CCOCC4)cc3)nc3[nH]cnc23)ccc1OC1CCOCC1 [compound 553] | 7.00 to 8.00 | 7.30 to 8.30
9 | N#Cc1cc(-c2ccnc(Nc3ccc(F)c(OCCN4CCNCC4)c3)n2)ccc1OCC1CC1 [compound 654, 2-(Cyclopropylmethoxy)-5-[2-({4-fluoro-3-[2-(piperazin-1-yl)ethoxy]phenyl}amino)pyrimidin-4-yl]benzonitrile] | > 8.00 | > 8.30
10 | CS(=O)(=O)N1CCC(Oc2ccc(-c3ccnc(Nc4ccc(N5CCOCC5)cc4)n3)cc2C#N)CC1 [Example 246, 2-{[1-(Methylsulfonyl)piperidin-4-yl]oxy}-5-(2-{[4-(morpholin-4-yl)phenyl]amino}pyrimidin-4-yl)benzonitrile] | > 8.00 | > 8.30
11 | COc1cc(Nc2nccc(-c3ccc(OCCO)c(C#N)c3)n2)ccc1N1CCNC(=O)C1 [compound 296, 2-(2-Hydroxyethoxy)-5-(2-{[3-methoxy-4-(3-oxopiperazin-1-yl)phenyl]amino}pyrimidin-4-yl)benzonitrile] | > 8.00 | 7.30 to 8.30
12 | CC(C)C(=O)Nc1ccc(-c2ccnc(Nc3cccc(CC(=O)NCCCN4CCOCC4)c3)n2)cc1C#N [compound 422, N-[2-cyano-4-(2-{[3-(2-{[3-(morpholin-4-yl)propyl]amino}-2-oxoethyl)phenyl]amino}pyrimidin-4-yl)phenyl]-2-methylpropanamide] | 7.00 to 8.00 | 7.30 to 8.30
13 | COc1ccc(-c2ccnc(Nc3ccc(OCCN4CCOCC4)c(OC)c3)n2)cc1C#N [Example 273, 2-Methoxy-5-[2-({3-methoxy-4-[2-(morpholin-4-yl)ethoxy]phenyl}amino)pyrimidin-4-yl]benzonitrile] | 7.00 to 8.00 | 7.30 to 8.30
14 | COc1ccc(-c2ccnc(Nc3ccc(N4CCN(C)C(=O)C4)c(OC)c3)n2)cc1C#N [Example 124] | > 8.00 | > 8.30
